Assay results from paper PMC5513037, “Examining the influence of specificity ligands and ATP-competitive ligands on the overall effectiveness of bivalent kinase inhibitors” (Proteome Science, 2017).

What was measured:
Assay in all cases: KAM-matrix competition in K562 lysate;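 for 0.001 uM KAM: median log10 fold change of treatment over DMSO control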;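 for 0.01 uM KAM: median log10 fold change of treatment over DMSO control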;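 for 0.1 uM KAM: median log10 fold change of treatment over DMSO control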;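 for 1 uM KAM: median log10 fold change of treatment over DMSO control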;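 for 10 uM KAM: median log10 fold change of treatment over DMSO control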
Format in all cases: binding
AURKC = molecular target: T1, AURKC (Homo sapiens, UniProt Q9UQB9)
T1 construct: endogenous in cells; host or cells: K562
T1 sequence (Q9UQB9 1-309): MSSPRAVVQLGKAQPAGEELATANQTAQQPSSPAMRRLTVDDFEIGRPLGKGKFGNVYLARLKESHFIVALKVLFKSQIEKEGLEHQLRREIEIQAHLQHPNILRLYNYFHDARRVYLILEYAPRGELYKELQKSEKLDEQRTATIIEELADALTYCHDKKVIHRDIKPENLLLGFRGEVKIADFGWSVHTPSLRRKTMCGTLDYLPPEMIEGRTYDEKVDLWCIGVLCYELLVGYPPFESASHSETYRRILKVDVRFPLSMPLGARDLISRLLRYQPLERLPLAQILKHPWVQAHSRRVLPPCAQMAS
Experimental: (§1) Supplement 12953_2017_125_MOESM1_ESM.zip/MS_Supp Info.xlsx, sheet "KAM" | column: 10 uM KAM; 1 uM KAM; 0.1 uM KAM; 0.01 uM KAM; 0.001 uM KAM; RB50

CSK = molecular target: T2, CSK (Homo sapiens, UniProt P41240);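 for 0.001 uM KAM: median log10 fold change of treatment over DMSO control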;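 for 0.01 uM KAM: median log10 fold change of treatment over DMSO control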;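 for 0.1 uM KAM: median log10 fold change of treatment over DMSO control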;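 for 1 uM KAM: median log10 fold change of treatment over DMSO control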;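 for 10 uM KAM: median log10 fold change of treatment over DMSO control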
T2 construct: endogenous in cells; host or cells: K562
T2 sequence (P41240 whole entry): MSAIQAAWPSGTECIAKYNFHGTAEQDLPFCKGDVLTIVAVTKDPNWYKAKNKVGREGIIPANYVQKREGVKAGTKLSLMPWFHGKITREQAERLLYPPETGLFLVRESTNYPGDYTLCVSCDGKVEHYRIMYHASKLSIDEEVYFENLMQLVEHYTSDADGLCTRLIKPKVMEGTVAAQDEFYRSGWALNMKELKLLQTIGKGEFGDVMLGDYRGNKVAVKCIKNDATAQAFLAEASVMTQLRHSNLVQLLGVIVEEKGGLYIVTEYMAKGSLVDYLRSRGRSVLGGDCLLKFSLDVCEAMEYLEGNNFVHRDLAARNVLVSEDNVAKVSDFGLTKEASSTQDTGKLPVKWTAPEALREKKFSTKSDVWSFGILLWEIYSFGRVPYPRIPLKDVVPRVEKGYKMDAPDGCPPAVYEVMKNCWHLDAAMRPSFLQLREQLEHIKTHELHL
Experimental: as §1

EEF2K = molecular target: T3, EEF2K (Homo sapiens, UniProt O00418);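 for 0.001 uM KAM: median log10 fold change of treatment over DMSO control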;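 for 0.01 uM KAM: median log10 fold change of treatment over DMSO control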;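 for 0.1 uM KAM: median log10 fold change of treatment over DMSO control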;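 for 1 uM KAM: median log10 fold change of treatment over DMSO control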;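 for 10 uM KAM: median log10 fold change of treatment over DMSO control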
T3 construct: endogenous in cells; host or cells: K562 lysate
T3 sequence (O00418 1-725): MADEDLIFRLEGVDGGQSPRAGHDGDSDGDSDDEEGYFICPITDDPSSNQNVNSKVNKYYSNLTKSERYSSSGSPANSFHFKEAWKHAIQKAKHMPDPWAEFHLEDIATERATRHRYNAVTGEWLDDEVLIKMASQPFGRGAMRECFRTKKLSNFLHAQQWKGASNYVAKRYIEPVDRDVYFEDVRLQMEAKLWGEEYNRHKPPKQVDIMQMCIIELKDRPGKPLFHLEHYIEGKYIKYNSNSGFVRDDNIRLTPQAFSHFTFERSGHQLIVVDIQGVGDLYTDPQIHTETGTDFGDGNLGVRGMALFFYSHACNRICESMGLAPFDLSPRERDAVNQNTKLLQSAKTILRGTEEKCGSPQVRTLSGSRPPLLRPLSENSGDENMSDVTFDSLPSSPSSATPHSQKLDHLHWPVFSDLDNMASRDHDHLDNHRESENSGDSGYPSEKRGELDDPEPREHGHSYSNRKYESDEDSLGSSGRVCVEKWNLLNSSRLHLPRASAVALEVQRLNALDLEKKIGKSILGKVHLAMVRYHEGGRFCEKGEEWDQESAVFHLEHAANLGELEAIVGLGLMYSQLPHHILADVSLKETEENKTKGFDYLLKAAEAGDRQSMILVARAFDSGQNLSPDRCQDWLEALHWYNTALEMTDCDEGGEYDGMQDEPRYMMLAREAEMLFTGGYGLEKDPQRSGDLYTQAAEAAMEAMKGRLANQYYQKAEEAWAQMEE
Experimental: as §1

MELK = molecular target: T4, MELK (Homo sapiens, UniProt Q14680)
T4 construct: endogenous in cells; host or cells: K562
T4 sequence (Q14680 whole entry): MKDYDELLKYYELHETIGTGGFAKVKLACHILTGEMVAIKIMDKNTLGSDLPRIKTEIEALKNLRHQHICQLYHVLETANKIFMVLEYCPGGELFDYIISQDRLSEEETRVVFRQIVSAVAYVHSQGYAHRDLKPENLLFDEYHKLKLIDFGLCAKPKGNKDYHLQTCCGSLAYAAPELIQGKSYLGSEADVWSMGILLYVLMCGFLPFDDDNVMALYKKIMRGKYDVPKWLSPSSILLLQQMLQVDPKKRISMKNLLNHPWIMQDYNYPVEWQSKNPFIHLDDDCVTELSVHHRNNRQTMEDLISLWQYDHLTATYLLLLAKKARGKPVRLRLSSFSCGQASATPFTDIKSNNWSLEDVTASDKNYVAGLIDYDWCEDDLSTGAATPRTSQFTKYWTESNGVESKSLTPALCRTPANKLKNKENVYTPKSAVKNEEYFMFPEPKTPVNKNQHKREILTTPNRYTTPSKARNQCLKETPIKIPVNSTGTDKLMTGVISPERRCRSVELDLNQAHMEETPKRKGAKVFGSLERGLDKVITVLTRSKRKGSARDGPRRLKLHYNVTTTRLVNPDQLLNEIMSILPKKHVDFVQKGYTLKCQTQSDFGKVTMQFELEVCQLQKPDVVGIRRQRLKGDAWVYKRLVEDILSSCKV
Experimental: as §1

RIOK1 = molecular target: T5, RIOK1 (Homo sapiens, UniProt Q9BRS2);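 for 0.001 uM KAM: median log10 fold change of treatment over DMSO control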;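 for 0.01 uM KAM: median log10 fold change of treatment over DMSO control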;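 for 0.1 uM KAM: median log10 fold change of treatment over DMSO control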;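 for 1 uM KAM: median log10 fold change of treatment over DMSO control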;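 for 10 uM KAM: median log10 fold change of treatment over DMSO control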
T5 construct: endogenous in cells; host or cells: K562
T5 sequence (Q9BRS2 1-568): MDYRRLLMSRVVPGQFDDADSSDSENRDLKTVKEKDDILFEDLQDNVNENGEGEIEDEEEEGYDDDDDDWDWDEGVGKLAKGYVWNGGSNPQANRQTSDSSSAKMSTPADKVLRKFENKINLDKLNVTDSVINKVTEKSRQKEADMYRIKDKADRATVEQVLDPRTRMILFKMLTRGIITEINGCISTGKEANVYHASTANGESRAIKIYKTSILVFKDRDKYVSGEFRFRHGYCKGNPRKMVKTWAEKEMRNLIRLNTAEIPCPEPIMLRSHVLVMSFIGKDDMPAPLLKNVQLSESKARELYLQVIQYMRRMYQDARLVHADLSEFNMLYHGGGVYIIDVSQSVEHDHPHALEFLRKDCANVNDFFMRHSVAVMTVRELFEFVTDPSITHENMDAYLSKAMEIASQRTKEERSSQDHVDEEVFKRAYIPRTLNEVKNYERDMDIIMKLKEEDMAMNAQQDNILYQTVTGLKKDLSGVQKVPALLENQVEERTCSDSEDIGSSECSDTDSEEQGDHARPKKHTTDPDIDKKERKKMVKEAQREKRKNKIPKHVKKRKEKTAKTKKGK
Experimental: as §1

ROR2 = molecular target: T6, ROR2 (Homo sapiens, UniProt Q01974);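 for 0.001 uM KAM: median log10 fold change of treatment over DMSO control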;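 for 0.01 uM KAM: median log10 fold change of treatment over DMSO control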;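 for 0.1 uM KAM: median log10 fold change of treatment over DMSO control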;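 for 1 uM KAM: median log10 fold change of treatment over DMSO control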;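 for 10 uM KAM: median log10 fold change of treatment over DMSO control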
T6 construct: endogenous in cells; host or cells: K562
T6 sequence (Q01974 34-943): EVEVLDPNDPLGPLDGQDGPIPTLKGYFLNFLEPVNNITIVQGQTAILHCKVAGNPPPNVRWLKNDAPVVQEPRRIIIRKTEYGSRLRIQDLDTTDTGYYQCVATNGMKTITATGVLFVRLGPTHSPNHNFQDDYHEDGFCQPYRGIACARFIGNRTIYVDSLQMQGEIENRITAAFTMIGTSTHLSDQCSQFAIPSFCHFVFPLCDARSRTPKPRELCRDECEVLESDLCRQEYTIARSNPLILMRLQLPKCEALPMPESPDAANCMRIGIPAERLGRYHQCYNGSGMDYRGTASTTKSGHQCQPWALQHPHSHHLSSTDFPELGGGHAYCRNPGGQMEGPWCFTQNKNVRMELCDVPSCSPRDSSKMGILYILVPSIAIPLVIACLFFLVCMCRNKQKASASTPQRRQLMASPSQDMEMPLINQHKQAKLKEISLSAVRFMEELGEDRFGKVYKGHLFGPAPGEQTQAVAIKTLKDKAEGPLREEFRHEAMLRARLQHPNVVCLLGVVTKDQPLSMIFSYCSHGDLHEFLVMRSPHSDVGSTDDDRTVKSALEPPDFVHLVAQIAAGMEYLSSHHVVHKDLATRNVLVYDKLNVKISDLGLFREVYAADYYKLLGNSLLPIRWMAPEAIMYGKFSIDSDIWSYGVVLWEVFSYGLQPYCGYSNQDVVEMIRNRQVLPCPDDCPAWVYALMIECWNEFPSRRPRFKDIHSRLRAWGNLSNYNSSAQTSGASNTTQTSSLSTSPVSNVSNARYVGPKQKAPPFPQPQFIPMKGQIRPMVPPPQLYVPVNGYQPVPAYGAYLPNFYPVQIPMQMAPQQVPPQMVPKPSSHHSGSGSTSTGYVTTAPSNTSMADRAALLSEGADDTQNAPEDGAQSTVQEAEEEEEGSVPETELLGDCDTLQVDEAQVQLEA
Experimental: as §1

[1] = read-out: RB50 (the source's name)
[2] = KAM 0.001-10 uM, read-out: RB50 (the source's name)

Structure (SMILES): N#CCc1ccc(Nc2nc(NCCCN)cc(Nc3cc(C4CC4)[nH]n3)n2)cc1 [KAM]
- median Log10 fold change (AURKC; 0.001 uM KAM): 0.0006126
- median Log10 fold change (AURKC; 0.01 uM KAM): -0.1035
- median Log10 fold change (AURKC; 0.1 uM KAM): -0.4123
- median Log10 fold change (AURKC; 1 uM KAM): -0.4901
- median Log10 fold change (AURKC; 10 uM KAM): -0.3419
- IC50 (AURKC; [1]): 0.075 µM
- IC50 (CSK; [2]): > 10 µM
- 0.001 uM KAM (CSK; relative to 0 uM KAM = 0): 0.01067
- 0.01 uM KAM (CSK; relative to 0 uM KAM = 0): -0.02135
- 0.1 uM KAM (CSK; relative to 0 uM KAM = 0): 0.028
- 1 uM KAM (CSK; relative to 0 uM KAM = 0): -0.04258
- 10 uM KAM (CSK; relative to 0 uM KAM = 0): -0.03639
- IC50 (EEF2K; [2]): > 10 µM
- 0.001 uM KAM (EEF2K; relative to 0 uM KAM = 0): 0.04185
- 0.01 uM KAM (EEF2K; relative to 0 uM KAM = 0): 0.02355
- 0.1 uM KAM (EEF2K; relative to 0 uM KAM = 0): 0.1074
- 1 uM KAM (EEF2K; relative to 0 uM KAM = 0): 0.1036
- 10 uM KAM (EEF2K; relative to 0 uM KAM = 0): 0.09999
- median Log10 fold change (MELK; 0.001 uM KAM): -0.02147
- median Log10 fold change (MELK; 0.01 uM KAM): 0.005817
- median Log10 fold change (MELK; 0.1 uM KAM): -0.06915
- median Log10 fold change (MELK; 1 uM KAM): -0.3528
- median Log10 fold change (MELK; 10 uM KAM): -0.5701
- IC50 (MELK; [1]): 0.94 µM
- IC50 (RIOK1; [2]): > 10 µM
- 0.001 uM KAM (RIOK1; relative to 0 uM KAM = 0): -0.005877
- 0.01 uM KAM (RIOK1; relative to 0 uM KAM = 0): -0.06085
- 0.1 uM KAM (RIOK1; relative to 0 uM KAM = 0): -0.03934
- 1 uM KAM (RIOK1; relative to 0 uM KAM = 0): 0.04921
- 10 uM KAM (RIOK1; relative to 0 uM KAM = 0): -0.001737
- IC50 (ROR2; [2]): > 10 µM
- 0.001 uM KAM (ROR2; relative to 0 uM KAM = 0): -0.05631
- 0.01 uM KAM (ROR2; relative to 0 uM KAM = 0): -0.02329
- 0.1 uM KAM (ROR2; relative to 0 uM KAM = 0): -0.008785
- 1 uM KAM (ROR2; relative to 0 uM KAM = 0): -0.03493
- 10 uM KAM (ROR2; relative to 0 uM KAM = 0): 0.2477
